Non-standard residues stand in square brackets, D forms with d. Residues, ends and D or L forms follow the SMILES beside them. ξ: configuration not given here. *: point of attachment. ξL = CC(C)CC(N)C(=O)O; CH2Cl = ClC*
Columns and labels:
chymotrypsin = chymotrypsin (Bos taurus, UniProt P00766); details: inhibitor concentration 600 μg/mL; cited from earlier work
subtilisin BPN' = target: T1, subtilisin BPN' (Bacillus amyloliquefaciens, UniProt P00782); details: cited from earlier work
T1 sequence (P00782 108-382): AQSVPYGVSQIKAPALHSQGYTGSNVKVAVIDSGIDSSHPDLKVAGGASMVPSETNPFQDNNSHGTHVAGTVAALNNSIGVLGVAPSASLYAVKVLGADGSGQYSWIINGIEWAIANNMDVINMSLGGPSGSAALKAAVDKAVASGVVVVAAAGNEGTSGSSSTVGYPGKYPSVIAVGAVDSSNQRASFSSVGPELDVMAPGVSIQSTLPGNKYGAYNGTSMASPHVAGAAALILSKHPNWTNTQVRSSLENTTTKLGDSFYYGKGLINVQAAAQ

[1] = tested on: human poliomyelitis virus type 2 or human rhinovirus type 1A; type: cell-based; set-up: key to Protease-Inhibiting Activity of Selected Peptide Chloromethyl Ketones: Activity: -: no activity; +/-: low activity; +: active at 100 μg/mL; ++: active at 50 μg/mL; +++: active at 10 μg/mL; ++++: active at <5 μg/mL
[2] = tested on: human poliomyelitis virus type 2; type: cell-based; details: test concentration 100 μg/mL
human rhinovirus type 1A = type: cell-based; details: test concentration 100 μg/mL
rhinovirus type 1A = type: cell-based
Poliovirus type 2 = type: cell-based

Question: For `CC(=O)N[C@@H](CC(C)C)C(=O)N[C@@H](CC(C)C)C(=O)N[C@@H](Cc1ccccc1)C(C)=O` [Ac-Leu-Leu-PheCH3], which inhibition of chymotrypsin (chymotrypsin) is on record?
Answer: no inhibition was observed

Question: With `CC(=O)N[C@@H](Cc1ccccc1)C(=O)NCC(=O)N[C@@H](C)C(=O)NC(CC(C)C)C(=O)CCl` (stereo partly drawn) [Peptide Analog 3, acetyl-L-phenylalanyl-L-glycyl-L-alanyl-L-leucyl chloromethyl ketone] (Ac-FGA[ξL]-CH2Cl) as the molecule, how does the “inhibition of subtilisin BPN' (rate, among the peptide chloromethyl ketones tested)” value (subtilisin BPN') read?
Answer: fastest inhibitor

Question: With `COC(=O)CCC(=O)N[C@@H](Cc1ccccc1)C(=O)NCC(=O)N[C@@H](CC(C)C)C(=O)N[C@@H](CC(C)C)C(C)=O` [MeOSuc-Phe-Gly-Leu-LeuCH3] as the molecule, how does the “Protease-Inhibiting Activity of Selected Peptide Chloromethyl Ketones: Activity” value [1] read?
Answer: +/-

Question: What does the source list for `COC(=O)CCC(=O)N[C@@H](Cc1ccccc1)C(=O)NCC(=O)N[C@@H](C)C(=O)N[C@@H](CC(C)C)C(C)=O` [MeOSuc-Phe-Gly-Ala-LeuCH3, MeOSuc--Phe--Gly--Ala--LeuCH3]?
Answer: activity in the viral cleavage assay [2]: demonstrated activity; activity in the viral cleavage assay (human rhinovirus type 1A): demonstrated activity; Protease-Inhibiting Activity of Selected Peptide Chloromethyl Ketones: Activity [1]: +++ (key: -: no activity; +/-: low activity; +: active at 100 μg/mL; ++: active at 50 μg/mL; +++: active at 10 μg/mL; ++++: active at <5 μg/mL)

Question: For `CC(=O)[C@H](CC(C)C)NC(=O)[C@H](C)NC(=O)CNC(=O)[C@H](Cc1ccccc1)NC(=O)OC(C)(C)C` [Boc-Phe-Gly-Ala-LeuCH3, reference compound], which “activity in the viral cleavage assay” value [1] is on record?
Answer: failed to show activity

Question: For `CC(=O)[C@H](CC(C)C)NC(=O)[C@H](CC(C)C)NC(=O)CNC(=O)[C@H](Cc1ccccc1)NC(=O)OCc1ccccc1` [Z-Phe-Gly-Leu-LeuCH3, N-carbobenzoxy-L-phenylalanyl-L-glycyl-L-leucyl-L-leucyl methyl ketone], which “Protease-Inhibiting Activity of Selected Peptide Chloromethyl Ketones: Activity” value [1] is on record?
Answer: +++ (key: -: no activity; +/-: low activity; +: active at 100 μg/mL; ++: active at 50 μg/mL; +++: active at 10 μg/mL; ++++: active at <5 μg/mL)

Question: With `CC(=O)[C@H](CC(C)C)NC(=O)[C@H](C)NC(=O)CNC(=O)[C@H](Cc1ccccc1)NC(=O)OCc1ccccc1` [Z-Phe-Gly-Ala-LeuCH3] as the molecule, how does the “plaque reduction compared to control plates” value (rhinovirus type 1A) read?
Answer: > 90%

Question: What about the cytotoxicity (HeLa cells) of the same molecule?
Answer: No cytotoxicity was observed

Question: What about the “plaque reduction compared to control plates” value (Poliovirus type 2) of the same molecule?
Answer: > 90%

Question: What about the “Protease-Inhibiting Activity of Selected Peptide Chloromethyl Ketones: Activity” value [1] of the same molecule?
Answer: +++ (key: -: no activity; +/-: low activity; +: active at 100 μg/mL; ++: active at 50 μg/mL; +++: active at 10 μg/mL; ++++: active at <5 μg/mL)
